# Assay results as given in paper PMC10218449, “Evidence for Angiotensin II as a Naturally Existing Suppressor for the Guanylyl Cyclase A Receptor and Cyclic GMP Generation” (International Journal of Molecular Sciences, 2023).
# How the values were obtained:
# [1] = Circulating ANP levels in normal rats after infusion; assay type: in vivo, rat (Sprague-Dawley, male)
# Experimental: (F) Urine output represented by urine volume collected at every 30 min interval during continuous infusion. (G) Urinary sodium excretion during the entire 90 min continuous infusion.
# Protocols in this study have been approved by the Mayo Clinic Institutional Animal Care and Use Committee (IACUC). Rats (Sprague-Dawley, male, 10–11 weeks old) were anesthetized and maintained with 2% isoflurane. Rats were kept on heating pad at 37 °C for the entire experiment to maintain their body temperature. Polyethylene tubes (PE-50) were placed into a jugular vein for saline and peptides infusion and into a carotid artery for BP monitoring and blood sampling. The bladder was cannulated with a PE-90 tube for passive urine collection. […] After the 45 min equilibrium, BP was recorded, and blood was sampled as baseline reference value. […] Urine samples were collected every 30 min period and BP was measured every 15 min using CardioSOFT Pro software (Sonometrics Corporation). […] The volume of urine was measured, and the sodium concentrations were measured with an electrocyte analyzer (Diamond Diagnostics Inc., Holliston, MA, USA). Both plasma and urine samples were then stored at −80 °C until assayed. cGMP was measured in rat plasma and urine samples by a cGMP ELISA (Enzo Life Sciences, Farmingdale, NY, USA) as previously reported.
# [2] = test system: HEK293/GC-A^+/AT1^+ cells (human GC-A and AT1); assay: Intracellular cGMP generation in HEK293/GC-A+/AT1+ cells; assay type: cell-based; conditions: valsartan 1 µM or Go6983 5 µM; ANP 10^−8 M, ANGII 10^−8 M; one-way ANOVA with Dunnett, p < 0.05
# Excerpt: We leveraged HEK293 cells as a cellular tool for mechanistic exploration in the current study. HEK293 cells (passage 4–6) were maintained in Dulbecco’s modified Eagle’s medium (DMEM) supplemented with 10% fetal bovine serum, 100 U/mL penicillin, 100 U/mL streptomycin, and designated antibiotics. HEK293/GC-A^+ and HEK293/GC-B^+ cell lines were generated from HEK293 parental cell transfected with plasmids (OriGene, Rockville, MD, USA) containing either human GC-A or GC-B cDNA sequences. Both GC-A and GC-B plasmid carried sequences for a green florescence protein (GFP) tag and resistance to Neomycin (G418). HEK293/GC-A^+/AT1^+ and HEK293/GC-A^+/AT2^+ cell lines were generated from HEK293/GC-A^+ transfected with lentiviral particle with clones of either human AT1 or AT2 receptor (OriGene, Rockville, MD, USA) using a polybrene transfection agent. Initial transfection was completed with multiplicity of infection (MOI) at 20, 10, and 1. The lentiviral vector carried sequence for resistance to puromycin. Positive HEK293/GC-A^+ and HEK293/GC-B^+ cells were cultured in a regular medium with 250 μg/mL G418; Likewise, positive HEK293/GC-A^+/AT1^+ or HEK293/GC-A^+/AT2^+ cells were cultured in a regular medium with 250 μg/mL G418 (to select for GC-A^+ cells) and 1 μg/mL puromycin (to select for AT1^+ or AT2^+ cells). […]
# PKC = PKC activity (phosphorylated pan-PKC substrates, western blot); assay type: cell-based, human; conditions: Go6983 at 5 µM, HEK293/GC-A^+/AT1^+ cells
# Excerpt: (§1) Figure 5 Involvement of PKC Signaling in the Crosstalk between ANGII and GC-A. (A) Protein expression of different human PKC isoforms in the membrane and cytosol fractions of different HEK293 cell lines (with or without treatment of ANGII). GC-A and NaK-ATPase serve as quality control for the separation of membrane and cytosol fractions. GAPDH serves as an additional control as it is primarily expressed in the cytosol fraction compared to membrane fraction. (B) Protein expression of phosphorylated PKC substrates, phosphorylated p38 MAPK, and p38 MAPK in HEK293/GC-A^+/AT1^+ cells treated with different PKC modulators. GAPDH serves as a loading control and 50 µg of total protein (determined using BCA method) was loaded in each lane. PMA, phorbol 12-myristate 13-acetate. […] (D) Hypothetical mechanism underlying the crosstalk between ANGII and GC-A derived from our in vitro studies: (1) ANGII naturally suppresses GC-A mediated cGMP production via AT1 receptor, but not the AT2 receptor nor direct effect on GC-A; (2) PKC is a critical downstream target of AT1 mediating this RAAS/NPS interaction.
# (§2) HEK293 parental cells, HEK293/GC-A^+, HEK293/GC-B^+, HEK293/GC-A^+/AT1^+, and HEK293/GC-A^+/AT2^+ cells were cultured in 60 mm dish to reach 90–100% confluency before being harvested in RIPA buffer (Thermo Fisher Scientific, Waltham, MA, USA) with protease inhibitors. […]
# p38 MAPK = assay: MAPK phosphorylation (p38 MAPK, western blot); assay type: cell-based, human; conditions: Go6983 at 5 µM, HEK293/GC-A^+/AT1^+ cells
# Excerpt: as §1, §2
molecule,measurement,setting,value
"CC[C@H](C)[C@H](NC(=O)[C@H](Cc1ccc(O)cc1)NC(=O)[C@@H](NC(=O)[C@H](CCCNC(=N)N)NC(=O)[C@@H](N)CC(=O)O)C(C)C)C(=O)N[C@@H](Cc1cnc[nH]1)C(=O)N1CCC[C@H]1C(=O)N[C@@H](Cc1ccccc1)C(=O)O [ANGII, angiotensin II]","circulating ANP levels, effect of ANGII co-infusion (in words)","[1]; ANGII 50 pmol/kg/min with ANP 300 pmol/kg/min vs ANP alone, 90 min, N = 4 per group",no influence on circulating ANP levels
"CC[C@H](C)[C@@H]1NC(=O)[C@H](CCCNC(=N)N)NC(=O)[C@H](CC(=O)O)NC(=O)[C@H](CCSC)NC(=O)[C@H](CCCNC(=N)N)NC(=O)CNC(=O)CNC(=O)[C@H](Cc2ccccc2)NC(=O)[C@@H](NC(=O)[C@H](CO)NC(=O)[C@H](CO)NC(=O)[C@H](CCCNC(=N)N)NC(=O)[C@H](CCCNC(=N)N)NC(=O)[C@H](CC(C)C)NC(=O)[C@@H](N)CO)CSSC[C@@H](C(=O)N[C@@H](CC(N)=O)C(=O)N[C@@H](CO)C(=O)N[C@@H](Cc2ccccc2)C(=O)N[C@@H](CCCNC(=N)N)C(=O)N[C@@H](Cc2ccc(O)cc2)C(=O)O)NC(=O)CNC(=O)[C@H](CC(C)C)NC(=O)CNC(=O)[C@H](CO)NC(=O)[C@H](CCC(N)=O)NC(=O)[C@H](C)NC(=O)CNC1=O [ANP, atrial natriuretic peptide]",circulating ANP level,"[1]; ANP alone, 300 pmol/kg/min continuous i.v. infusion, plasma at 90 min, mean ± SEM, N = 4, endogenous level 15.3 ± 1.4 pg/mL",18125.1 ± 1729.3 pg/mL
CCCCC(=O)N(Cc1ccc(-c2ccccc2-c2nnn[nH]2)cc1)[C@H](C(=O)O)C(C)C [valsartan],rescue of ANGII suppression of ANP-induced cGMP (in words),[2],significantly rescued the suppression effect of ANGII on ANP-induced cGMP
Go6983,PKC activity inhibition (in words),PKC,effectively inhibited PKC activity
same,MAPK dependence of PKC inhibition (in words),p38 MAPK,mitogen-activated protein kinase (MAPK) independent manner
same,rescue of ANGII suppression of ANP-induced cGMP (in words),[2],significantly rescued the suppression effect of ANGII on ANP-induced cGMP
